Data reported in patent US7456167B2, “Cyclopropyl fused indolobenzazepine HCV NS5B inhibitors” (Bristol-Myers Squibb Company, priority 2006, dated 2008).
Like-named read-outs stand apart in the source and are kept apart here.

What was measured:
[1] = system: HCV replicon cells; experiment: HCV replicon FRET assay; assay type: cell-based; conditions: Hepatitis C virus
Source text: FRET Assay Preparation. To perform the HCV FRET screening assay, 96-well cell culture plates were used. The FRET peptide (Anaspec, Inc.) (Taliani et al., Anal. Biochem. 1996, 240, 60-67) contains a fluorescence donor, EDANS, near one end of the peptide and an acceptor, DABCYL, near the other end. The fluorescence of the peptide is quenched by […] resonance energy transfer (RET) between the donor and the acceptor, but as the NS3 protease cleaves the peptide the products are released from RET quenching and the fluorescence of the donor becomes apparent. The assay reagent was made as follows: 5× cell Luciferase cell culture lysis reagent from Promega (#E153A) diluted to 1× with dH2O, NaCl added to 150 mM final, the FRET peptide diluted to 20 uM final from a 2 mM stock.
To prepare plates, HCV replicon cells, with or without a Renilla luciferase reporter gene, were trypsinized and placed into each well of a 96-well plate with titrated test compounds added in columns 3 through 12; columns 1 and 2 contained a control compound (HCV protease inhibitor), and the bottom row contained cells without compound. The plates were then placed in a CO2 incubator at 37° C.
Assays. Subsequent to addition of the test compounds described above (FRET Assay Preparation), at various times the plate was removed and Alamar blue solution (Trek Diagnostics, #00-100) was added per well as a measure of cellular toxicity. After reading in a Cytoflour 4000 instrument (PE Biosystems), plates were rinsed with PBS and then used for FRET assay by the addition of 30 ul of the FRET peptide assay reagent described above (FRET Assay Preparation) per well. The plate was then placed into the Cytoflour 4000 instrument which had been set to 340 excite/490 emission, automatic mode for 20 cycles and the plate read in a kinetic mode. Typically, the signal to noise using an endpoint analysis after the reads was at least three-fold. Alternatively, after Alamar blue reading, plates were rinsed with PBS, 50 ul of DMEM (high glucose) without phenol red was added and plates were then used for luciferase assay using the Promega Dual-Glo Luciferase Assay System.
Compound analysis was determined by quantification of the relative HCV replicon inhibition and the relative cytotoxicity values. To calculate cytoxicity values, the average Alamar Blue fluorescence signals from the control wells were set as 100% non-toxic. The individual signals in each of the compound test wells were then divided by the average control signal and multiplied by 100% to determine […]. To calculate the HCV replicon inhibition values, an average background value was obtained from the two wells containing the highest amount of HCV protease inhibitor at the end of the assay period. These numbers were similar to those obtained from naïve Huh-7 cells.
The background numbers were then subtracted from the average signal obtained from the control wells and this number was used as 100% activity. The individual signals in each of the compound test wells were then divided by the averaged control values after background subtraction and multiplied by 100% to determine percent activity. EC50 values for a protease inhibitor titration were calculated as the concentration which caused a 50% reduction in FRET or luciferase activity. The two numbers generated for the compound plate, percent cytoxicity and percent activity were used to determine compounds of interest for further analysis.

[2] = target: T1, HCV NS5B RdRp genotype 1b (Hepatitis C virus genotype 1b, UniProt Q9WMX2); experiment: Modified HCV NS5B RdRp enzyme assay (preincubation protocol); assay type: biochemical
T1 construct: The protein was expressed with an 18 amino acid C-terminal truncation to enhance the solubility; made in house; host or cells: E. coli BL21(DE3)
T1 sequence (Q9WMX2 2420-2992): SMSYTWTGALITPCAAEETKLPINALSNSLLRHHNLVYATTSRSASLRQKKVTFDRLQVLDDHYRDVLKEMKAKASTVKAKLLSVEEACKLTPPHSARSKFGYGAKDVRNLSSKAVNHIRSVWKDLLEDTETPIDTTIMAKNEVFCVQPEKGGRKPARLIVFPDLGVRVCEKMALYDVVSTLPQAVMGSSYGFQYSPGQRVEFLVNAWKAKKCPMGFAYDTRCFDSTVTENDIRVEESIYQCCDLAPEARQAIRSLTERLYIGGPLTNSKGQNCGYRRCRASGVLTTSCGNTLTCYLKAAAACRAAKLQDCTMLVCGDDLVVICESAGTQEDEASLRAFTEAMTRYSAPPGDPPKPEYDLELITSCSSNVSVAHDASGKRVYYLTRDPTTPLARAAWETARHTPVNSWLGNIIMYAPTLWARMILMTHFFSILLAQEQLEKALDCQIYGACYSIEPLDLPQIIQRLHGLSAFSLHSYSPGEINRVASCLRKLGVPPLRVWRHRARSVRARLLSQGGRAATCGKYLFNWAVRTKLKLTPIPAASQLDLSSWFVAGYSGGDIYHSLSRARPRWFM
Method: HCV NS5B RdRp cloning, expression, and purification. The cDNA encoding the NS5B protein of HCV, genotype 1b, was cloned into the pET21a expression vector. The protein was expressed with an 18 amino acid C-terminal truncation to enhance the solubility. The E. coli competent cell line BL21(DE3) was used for expression of the protein. Cultures were grown at 37° C. for ˜4 hours until the cultures reached an optical density of 2.0 at 600 nm. The cultures were cooled to 20° C. and induced with 1 mM IPTG. Fresh ampicillin was added to a final concentration of 50 μg/ml and the cells were grown overnight at 20° C.
Cell pellets (3 L) were lysed for purification to yield 15-24 mgs of purified NS5B. The lysis buffer consisted of 20 mM Tris-HCl, pH 7.4, 500 mM NaCl, 0.5% triton X-100, 1 mM DTT, 1 mM EDTA, 20% glycerol, 0.5 mg/ml lysozyme, 10 mM MgCl2, 15 ug/ml deoxyribonuclease I, and Complete TM protease inhibitor tablets (Roche). After addition of the lysis buffer, frozen cell pellets were resuspended using a tissue homogenizer. To reduce the viscosity of the sample, aliquots of the lysate were sonicated on ice using a microtip attached to a Branson sonicator. The sonicated lysate was centrifuged at 100,000×g for 1 hr at 4° C. and filtered through a 0.2 μm filter unit (Corning).
The protein was purified using three sequential chromatography steps: Heparin sepharose CL-6B, polyU sepharose 4B, and Hitrap SP sepharose (Pharmacia). The chromatography buffers were identical to the lysis buffer but contained no lysozyme, deoxyribonuclease I, MgCl2 or protease inhibitor and the NaCl concentration of the buffer was adjusted according to the requirements for charging the protein onto the column. Each column was eluted with a NaCl gradient which varied in length from 5-50 column volumes depending on the column type. After the final chromatography step, the resulting purity of the enzyme is >90% based on SDS-PAGE analysis. The enzyme was aliquoted and stored at −80° C.
Standard HCV NS5B RdRp enzyme assay. HCV RdRp genotype 1b assays were run in a final volume of 60 μl in 96 well plates (Costar 3912). The assay buffer is composed of 20 mM Hepes, pH 7.5, 2.5 mM KCl, 2.5 mM MgCl2, 1 mM DTT, 1.6 U RNAse inhibitor (Promega N2515), 0.1 mg/ml BSA (Promega R3961), and 2% glycerol. All compounds were serially diluted (3-fold) in DMSO and diluted further in water such that the final concentration of DMSO in the assay was 2%. HCV RdRp genotype 1b enzyme was used at a final concentration of 28 nM. A polyA template was used at 6 nM, and a biotinylated oligo-dT12 primer was used at 180 nM final concentration. Template was obtained commercially (Amersham 27-4110). Biotinylated primer was prepared by Sigma Genosys. 3H-UTP was used at 0.6 μCi (0.29 μM total UTP). Reactions were initiated by the addition of enzyme, incubated at 30° C. for 60 min, and stopped by adding 25 μl of 50 mM EDTA containing SPA beads (4 μg/μl, Amersham RPNQ 0007). Plates were read on a Packard Top Count NXT after >1 hr incubation at room temperature.
Modified HCV NS5B RdRp enzyme assay. A modified enzyme assay was performed essentially as described for the standard enzyme assay except for the following: The biotinylated oligo dT12 primer was precaptured on streptavidin-coated SPA beads by mixing primer and beads in assay buffer and incubating at room temperature for one hour. Unbound primer was removed after centrifugation. The primer-bound beads were resuspended in 20 mM Hepes buffer, pH 7.5 and used in the assay at final concentrations of 20 nM primer and 0.67 μg/μl beads. Order of addition in the assay: enzyme (14 nM) was added to diluted compound followed by the addition of a mixture of template (0.2 nM), 3H-UTP (0.6 μCi, 0.29 μM), and primer-bound beads, to initiate the reaction; concentrations given are final. Reactions were allowed to proceed for 4 hours at 30° C.
IC50 values for compounds were determined using seven different [I]. […]

[3] = HCV replicon cells, FRET assay, read-out: EC50
[4] = HCV NS5B RdRp genotype 1b, preincubation protocol, read-out: IC50

Row | SMILES | EC50 [1, 3] | IC50 [2, 4] | EC50 [1] | IC50 [2]
1 | COc1ccc2c(c1)CC(S(=O)(=O)CCN(C)C)Cn1c-2c(C2CCCCC2)c2ccc(C(=O)NS(=O)(=O)N(C)C)cc21 (stereo not drawn) | 20 to 1000 nM | 20 to 1000 nM |  | 
2 | COc1ccc2c(c1)CC(S(=O)(=O)CCN1CCOCC1)Cn1c-2c(C2CCCCC2)c2ccc(C(=O)NS(=O)(=O)N(C)C)cc21 (stereo not drawn) | 20 to 1000 nM | 20 to 1000 nM |  | 
3 | COc1ccc2c(c1)C1CC1(S(=O)(=O)N1C3CCC1CN(C)C3)Cn1c-2c(C2CCCCC2)c2ccc(C(=O)O)cc21 (stereo not drawn) |  |  | 20 to 1000 nM | 20 to 1000 nM
4 | COc1ccc2c(c1)C1CC1(S(=O)(=O)N1C3CCC1CN(C)C3)Cn1c-2c(C2CCCCC2)c2ccc(C(=O)NS(=O)(=O)N(C)C)cc21 (stereo not drawn) |  |  | 20 to 1000 nM | 20 to 1000 nM
5 | COc1ccc2c(c1)C1CC1(S(=O)(=O)N1C3CCC1CC(C)(O)C3)Cn1c-2c(C2CCCCC2)c2ccc(C(=O)NS(=O)(=O)C(C)C)cc21 (stereo not drawn) |  |  | 20 to 1000 nM | 20 to 1000 nM
6 | COc1ccc2c(c1)C1CC1(S(=O)(=O)N1C3CCC1CC(C)(O)C3)Cn1c-2c(C2CCCCC2)c2ccc(C(=O)NS(=O)(=O)N3CCOCC3)cc21 (stereo not drawn) |  |  | 20 to 1000 nM | 20 to 1000 nM
7 | COc1ccc2c(c1)C1CC1(S(=O)(=O)N1C3CCC1CC(C)(O)C3)Cn1c-2c(C2CCCCC2)c2ccc(C(=O)NS(=O)(=O)N(C)C)cc21 (stereo not drawn) |  |  | 20 to 1000 nM | 20 to 1000 nM
8 | COC[C@@H]1CN(S(=O)(=O)C23CC2c2cc(OC)ccc2-c2c(C4CCCCC4)c4ccc(C(=O)NS(=O)(=O)N5CCOCC5)cc4n2C3)CCO1 (stereo partly drawn) | 20 to 1000 nM | 20 to 1000 nM |  | 
9 | COc1ccc2c(c1)C1CC1(S(=O)(=O)N1CCN3CCCC3C1)Cn1c-2c(C2CCCCC2)c2ccc(C(=O)NS(=O)(=O)C(C)C)cc21 (stereo not drawn) | 20 to 1000 nM | 20 to 1000 nM |  | 
10 | COc1ccc2c(c1)C1CC1(S(=O)(=O)N1CCN3CCCC3C1)Cn1c-2c(C2CCCCC2)c2ccc(C(=O)NS(=O)(=O)N(C)C)cc21 (stereo not drawn) | 20 to 1000 nM | 20 to 1000 nM |  | 
11 | COc1ccc2c(c1)C1CC1(S(=O)(=O)N1CCC[C@H]3CN(Cc4ccccc4)C[C@H]31)Cn1c-2c(C2CCCCC2)c2ccc(C(=O)NS(=O)(=O)N3CCOCC3)cc21 (stereo partly drawn) | 20 to 1000 nM | 20 to 1000 nM |  | 
12 | COc1ccc2c(c1)C1CC1(S(=O)(=O)N1CC[C@@H](N(C)C)C1)Cn1c-2c(C2CCCCC2)c2ccc(C(=O)NS(=O)(=O)C(C)C)cc21 (stereo partly drawn) | 20 to 1000 nM | 20 to 1000 nM |  | 
13 | COc1ccc2c(c1)C1CC1(S(=O)(=O)N1CC[C@@H](N(C)C)C1)Cn1c-2c(C2CCCCC2)c2ccc(C(=O)NS(=O)(=O)N3CCOCC3)cc21 (stereo partly drawn) | 20 to 1000 nM | 20 to 1000 nM |  | 
14 | COc1ccc2c(c1)C1CC1(S(=O)(=O)N1CC[C@@H](N(C)C)C1)Cn1c-2c(C2CCCCC2)c2ccc(C(=O)NS(=O)(=O)N(C)C)cc21 (stereo partly drawn) | 20 to 1000 nM | 20 to 1000 nM |  | 
15 | COc1ccc2c(c1)C1CC1(S(=O)(=O)N1CCC1)Cn1c-2c(C2CCCCC2)c2ccc(C(=O)NS(=O)(=O)C(C)C)cc21 (stereo not drawn) | 20 to 1000 nM | 20 to 1000 nM |  | 
16 | COc1ccc2c(c1)C1CC1(S(=O)(=O)N1CCCC1)Cn1c-2c(C2CCCCC2)c2ccc(C(=O)NS(=O)(=O)C(C)C)cc21 (stereo not drawn) | 20 to 1000 nM | 20 to 1000 nM |  | 
17 | COc1ccc2c(c1)C1CC1(S(=O)(=O)N1C3CCC1CC3)Cn1c-2c(C2CCCCC2)c2ccc(C(=O)NS(=O)(=O)C(C)C)cc21 (stereo not drawn) |  |  | 20 to 1000 nM | 20 to 1000 nM
18 | COc1ccc2c(c1)C1CC1(S(=O)(=O)N1CCN3CCC1CC3)Cn1c-2c(C2CCCCC2)c2ccc(C(=O)NS(=O)(=O)N3CCOCC3)cc21 (stereo not drawn) | 20 to 1000 nM | 20 to 1000 nM |  | 
19 | COc1ccc2c(c1)C1CC1(S(=O)(=O)N1CCCC1)Cn1c-2c(C2CCCCC2)c2ccc(C(=O)NS(=O)(=O)N3CCOCC3)cc21 (stereo not drawn) | 20 to 1000 nM | 20 to 1000 nM |  | 
20 | CCN(C)S(=O)(=O)NC(=O)c1ccc2c(C3CCCCC3)c3n(c2c1)CC1(S(=O)(=O)N2C[C@@H](C)N(C)[C@@H](C)C2)CC1c1cc(OC)ccc1-3 (stereo partly drawn) | 20 to 1000 nM | 20 to 1000 nM |  | 
21 | COc1ccc2c(c1)C1CC1(S(=O)(=O)N1C[C@@H](C)N(C)[C@@H](C)C1)Cn1c-2c(C2CCCCC2)c2ccc(C(=O)NS(=O)(=O)N3CCC3)cc21 (stereo partly drawn) | 20 to 1000 nM | 20 to 1000 nM |  | 
22 | COc1ccc2c(c1)C1CC1(S(=O)(=O)N1C[C@@H](C)N(C)[C@@H](C)C1)Cn1c-2c(C2CCCCC2)c2ccc(C(=O)NS(=O)(=O)N3CCCC3)cc21 (stereo partly drawn) | 20 to 1000 nM | 20 to 1000 nM |  | 
23 | COc1ccc2c(c1)C1CC1(S(=O)(=O)N1C[C@@H](C)N(C)[C@@H](C)C1)Cn1c-2c(C2CCCCC2)c2ccc(C(=O)NS(=O)(=O)N3CCOCC3)cc21 (stereo partly drawn) | 20 to 1000 nM | 20 to 1000 nM |  | 
24 | COc1ccc2c(c1)C1CC1(S(=O)(=O)N1C[C@@H](C)N(C)[C@@H](C)C1)Cn1c-2c(C2CCCCC2)c2ccc(C(=O)NS(=O)(=O)N3CCN(C)CC3)cc21 (stereo partly drawn) | 20 to 1000 nM | 20 to 1000 nM |  | 
